In publication PMC5394417, “Investigating the molecular mechanism of positive and negative allosteric modulators in the calcium-sensing receptor dimer” (Scientific Reports, 2017):

Assays:
[1] = biological target: T1, HA-F801A CaSR mutant (ICL3 mutant) (Rattus norvegicus, UniProt P48442, F801A); assay: IP-One assay, HEK293T transiently transfected; type: cell-based
T1 construct: mGluR5 signal peptide (N); expressed in transfected cells; host or cells: HEK293T

[2] = biological target: T2, HA-S147A/S170A CaSR mutant (Rattus norvegicus, UniProt P48442, S147A/S170A); assay: IP-One assay, HEK293T transiently transfected; type: cell-based
T2 construct: mGluR5 signal peptide (N); expressed in transfected cells; host or cells: HEK293T
T2 sequence (P48442 20-1079 S147A/S170A): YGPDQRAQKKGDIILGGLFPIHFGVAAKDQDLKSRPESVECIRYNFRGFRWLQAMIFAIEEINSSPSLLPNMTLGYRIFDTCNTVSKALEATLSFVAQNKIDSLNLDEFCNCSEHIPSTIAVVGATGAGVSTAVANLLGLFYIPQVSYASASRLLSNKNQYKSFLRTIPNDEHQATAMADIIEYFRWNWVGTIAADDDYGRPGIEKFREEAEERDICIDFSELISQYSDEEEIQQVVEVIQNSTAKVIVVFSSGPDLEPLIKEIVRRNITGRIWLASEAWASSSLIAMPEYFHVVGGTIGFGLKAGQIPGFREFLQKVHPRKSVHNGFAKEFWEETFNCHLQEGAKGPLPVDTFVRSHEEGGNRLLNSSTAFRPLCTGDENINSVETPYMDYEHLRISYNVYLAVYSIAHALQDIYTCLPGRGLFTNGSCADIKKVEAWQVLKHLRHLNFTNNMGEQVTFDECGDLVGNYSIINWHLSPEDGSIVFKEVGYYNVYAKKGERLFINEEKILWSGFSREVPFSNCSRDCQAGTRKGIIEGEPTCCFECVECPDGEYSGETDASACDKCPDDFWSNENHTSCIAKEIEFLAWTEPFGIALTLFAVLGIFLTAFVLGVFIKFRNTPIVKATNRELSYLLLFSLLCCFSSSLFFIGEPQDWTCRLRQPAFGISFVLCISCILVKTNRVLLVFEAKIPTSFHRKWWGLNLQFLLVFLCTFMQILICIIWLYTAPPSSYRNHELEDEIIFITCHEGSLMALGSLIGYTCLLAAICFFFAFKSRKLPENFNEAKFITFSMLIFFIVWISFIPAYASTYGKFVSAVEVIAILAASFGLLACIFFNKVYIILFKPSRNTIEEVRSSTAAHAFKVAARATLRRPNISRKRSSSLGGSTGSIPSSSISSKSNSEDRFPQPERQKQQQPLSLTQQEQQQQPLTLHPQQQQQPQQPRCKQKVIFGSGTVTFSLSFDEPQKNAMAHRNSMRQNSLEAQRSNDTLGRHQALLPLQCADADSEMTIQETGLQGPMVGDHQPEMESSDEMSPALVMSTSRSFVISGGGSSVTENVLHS

[3] = normalized to maximum response of WT CaSR

T1 sequence (P48442 20-1079 F801A): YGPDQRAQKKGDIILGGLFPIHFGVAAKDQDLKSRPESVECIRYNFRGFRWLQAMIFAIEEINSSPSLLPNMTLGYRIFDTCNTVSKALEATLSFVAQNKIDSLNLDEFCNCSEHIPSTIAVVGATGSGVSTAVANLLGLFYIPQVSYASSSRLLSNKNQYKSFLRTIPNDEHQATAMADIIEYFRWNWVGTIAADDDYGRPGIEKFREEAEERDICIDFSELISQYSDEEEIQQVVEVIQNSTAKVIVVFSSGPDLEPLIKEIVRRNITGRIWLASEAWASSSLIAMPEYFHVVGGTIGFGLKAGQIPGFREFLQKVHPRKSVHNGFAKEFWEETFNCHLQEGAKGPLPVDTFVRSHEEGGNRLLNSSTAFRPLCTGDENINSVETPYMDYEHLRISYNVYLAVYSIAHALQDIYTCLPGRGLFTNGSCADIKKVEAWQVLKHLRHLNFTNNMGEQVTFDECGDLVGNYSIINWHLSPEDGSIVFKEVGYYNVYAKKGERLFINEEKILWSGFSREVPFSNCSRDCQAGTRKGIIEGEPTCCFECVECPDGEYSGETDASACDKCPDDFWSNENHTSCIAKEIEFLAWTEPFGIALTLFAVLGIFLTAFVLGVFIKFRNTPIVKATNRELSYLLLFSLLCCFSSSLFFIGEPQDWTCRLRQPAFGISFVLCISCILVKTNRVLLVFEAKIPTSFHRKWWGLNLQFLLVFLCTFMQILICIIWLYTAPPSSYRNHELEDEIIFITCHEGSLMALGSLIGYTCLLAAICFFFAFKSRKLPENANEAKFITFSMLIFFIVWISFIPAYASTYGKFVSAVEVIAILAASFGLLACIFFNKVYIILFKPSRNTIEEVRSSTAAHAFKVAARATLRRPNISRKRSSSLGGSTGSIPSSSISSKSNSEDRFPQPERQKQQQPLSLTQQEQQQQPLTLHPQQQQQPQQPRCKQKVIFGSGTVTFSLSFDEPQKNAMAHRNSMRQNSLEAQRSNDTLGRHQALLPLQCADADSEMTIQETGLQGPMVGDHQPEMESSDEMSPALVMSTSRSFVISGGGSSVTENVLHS

[Ca+2] [Ca^2+]
EC50 ([1]; Ca^2+ alone): > 30 mM | Max ± S.E.M. [1, 3]: 5.8 ± 0.4% | EC50 ([2]; Ca^2+ alone): 9.04 mM | Hill coefficient ± S.E.M. ([2]; Ca^2+ alone): 3.00 ± 0.07 | pEC50 ± S.E.M. ([2]; Ca^2+ alone): 2.04 ± 0.02 | Max ± S.E.M. [2, 3]: 130 ± 28%
